“And” between values parts separate entries of the source, which are not always exact repeats. Equal values may be shown once.
Columns and labels:
∆-hDAT [1] = molecular target: T1, ∆-hDAT (Homo sapiens, UniProt Q01959, I248Y); settings: ∆-hDAT, HEK293 GnTI− cells, mean ± s.d., n = 3
Protocol: (§2) HEK293 GnTI^− cells were transduced with Δ-hDAT and full-length hDAT P2 viruses, propagated in SF9 cells using standard methods as described in ‘Protein expression and purification’, at a cell density of 2.5 – 3.0 × 10^6 cells per ml, followed by incubation at 37 °C for 6 h. After 6 h, sodium butyrate was added to a final concentration of 10 mM, and the cells were transferred to 30 °C with 8% CO2 for 6 h. The transduced cells were seeded into 96-well poly-D-lysine coated Isoplates (Perkin Elmer) at a density of 100,000 cells per well. The plates were then incubated at 30 °C for 12–16 h before the uptake assay was initiated. The cells were initially washed with 37 °C uptake assay buffer composed of 25 mM HEPES pH 7.4, 120 mM NaCl, 5 mM KCl, 1.2 mM CaCl2, 1.2 mM MgSO4, 5 mM D-glucose, 1 mM ascorbic acid, and 1 µM Ro 41-0960, followed by incubation in 50 µl of the same buffer for 10 min. Replicates with 10 µM of GBR12909 in the uptake assay buffer were used to measure background. […] The uptake reaction was stopped by adding 100 µl of chilled inhibition buffer, uptake assay buffer supplemented with 2.5 µM GBR12909. Two consecutive washes with 100 µl of inhibition buffer were carried out, followed by resuspension of cells in 100 µl of 1% Triton X-100. Finally, 100 µl of liquid scintillation cocktail was added to each well and [^3H] counts were measured using a MicroBeta2 (Perkin Elmer). Background counts from three replicates were averaged and subtracted from total counts.

full-length hDAT = full-length hDAT (Homo sapiens, UniProt Q01959); settings: full-length hDAT, HEK293 GnTI− cells, mean ± s.d., n = 3
Protocol: as §2

∆-hDAT [2] = molecular target: T1, ∆-hDAT; assay: Scintillation proximity assay (SPA), [3H]WIN35428 binding to purified His-tagged ∆-hDAT; parameters: expressed in transfected cells; host or cells: HEK293 GnTI- cells, BacMam baculovirus transduction; settings: β-CFT 0.617 nM, background not subtracted
Protocol: The various buffer systems were unchanged. YSi-Cu SPA beads at 1 mg ml^−1 were added to ∆-hDAT (30 nM) in SEC buffer (0.02% digitonin, 0.002% CHS, 50 mM HEPES pH 7.8, 200 mM NaCl, 25 µM POPC and 4 µM MRS7292). [^3H]-WIN35428 (82.8 Ci mmol^−1) in 20 mM HEPES pH 7.8 and 100 mM NaCl was used at concentration points ranging from 0 to 150 nM. For background measurement, 100 µM of GBR12909 was added to the assay buffer. Reactants were added to a 96-well isoplate, briefly mixed on a shaker at room temperature, and [^3H] counts were recorded using a MicroBeta2. […] Background subtracted counts were plotted and analysed by a single-site binding model via nonlinear regression analysis in GraphPad Prism v7.05.

hDAT W84C = settings: W84C mutant; cited from earlier work
∆-hDAT T211H = molecular target: T2, ∆-hDAT T211H (Homo sapiens, UniProt Q01959, I248Y/T211H); assay: Zn2+ inhibition of [3H]dopamine uptake (IC50), T211H mutant; type: cell-based; settings: for T211H total: [3H]dopamine uptake raw counts, Fig 3c, triplicates, replicates 1-3
T2 construct: expressed in transfected cells; host or cells: HEK293 GnTI- cells, BacMam baculovirus transduction
Protocol: (§1) For IC50 measurements of Zn^2+, uptake assays were carried out as described for MRS7292 with the following alterations. The uptake buffer contained EPPS at pH 8.5 in place of HEPES. Cells were washed once with uptake buffer containing 1 mM ethylenediaminetetraacetic acid (EDTA) to chelate ambient Zn^2+ from the cell growth medium, followed by second wash without EDTA. Cells were then incubated for 15 min in uptake buffers containing 0.3–300 µM added Zn^2+ for ∆-hDAT, 0.1–100 µM added Zn^2+ for T211H, and 0.03–30 µM added Zn^2+ for T211E. […] The IC50 of Zn^2+ for the T211E mutant was also measured at pH 7.5 to obtain a more complete inhibition curve.

∆-hDAT T211E = molecular target: T3, ∆-hDAT T211E (Homo sapiens, UniProt Q01959, I248Y/T211E); assay: Zn2+ inhibition of [3H]dopamine uptake (IC50), T211E mutant; type: cell-based; settings: for T211E total: [3H]dopamine uptake raw counts, Fig 3c, triplicates, replicates 1-3
T3 construct: expressed in transfected cells; host or cells: HEK293 GnTI- cells, BacMam baculovirus transduction
Protocol: as §1

hDAT D191N = settings: D191 mutated to asparagine; cited from earlier work
∆-hDAT [3] = molecular target: T1, ∆-hDAT; assay: Zn2+ inhibition of [3H]dopamine uptake (IC50), ∆-hDAT; type: cell-based; parameters: expressed in transfected cells; host or cells: HEK293 GnTI- cells, BacMam baculovirus transduction; settings: [3H]dopamine uptake raw counts, Fig 3c, triplicates, replicates 1-3
Protocol: as §1

[4] = substrate: NCCc1ccc(O)c(O)c1; assay: cells, lysate or membranes; settings: HEK293 GnTI− cells, Michaelis–Menten model, mean ± s.d., n = 3, pH 7.4

T3 sequence (Q01959 57-620 T211E/I248Y limits assumed): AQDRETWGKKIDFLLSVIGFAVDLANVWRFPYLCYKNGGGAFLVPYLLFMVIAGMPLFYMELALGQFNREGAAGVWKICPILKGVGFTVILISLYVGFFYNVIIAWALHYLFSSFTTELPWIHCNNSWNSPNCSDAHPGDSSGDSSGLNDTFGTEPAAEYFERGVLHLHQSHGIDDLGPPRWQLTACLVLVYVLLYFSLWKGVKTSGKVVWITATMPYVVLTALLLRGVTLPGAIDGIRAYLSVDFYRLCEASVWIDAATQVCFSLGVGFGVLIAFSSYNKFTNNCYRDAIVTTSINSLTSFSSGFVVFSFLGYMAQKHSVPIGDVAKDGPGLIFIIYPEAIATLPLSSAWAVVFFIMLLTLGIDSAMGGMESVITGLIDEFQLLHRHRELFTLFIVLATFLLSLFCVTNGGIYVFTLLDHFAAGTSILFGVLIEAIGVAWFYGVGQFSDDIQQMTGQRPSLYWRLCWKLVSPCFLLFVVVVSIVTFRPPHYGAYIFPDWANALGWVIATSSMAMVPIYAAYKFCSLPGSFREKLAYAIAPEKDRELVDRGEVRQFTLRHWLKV
T2 sequence (Q01959 57-620 T211H/I248Y limits assumed): as the sequence (Q01959 57-620 T211E/I248Y limits assumed) above, with E155H counted along it

NCCc1ccc(O)c(O)c1 [[^3H]dopamine, dopamine]
reaction rate at infinite substrate concentration (Vmax) for [3H]dopamine uptake (∆-hDAT [1]): 342.8 ± 11.7 fmol min^−1 per well | reaction rate at infinite substrate concentration (Vmax) for [3H]dopamine uptake (full-length hDAT): 190.9 ± 10.7 fmol min^−1 per well

COC(=O)C1C(c2ccc(F)cc2)CC2CCC1N2C (single isomer, unassigned; (-)) [β-CFT, (–)-2-β-carbomethoxy-3-β-(4-fluorophenyl)tropane]
SPA total counts, binding to purified ∆-hDAT (∆-hDAT [2]): 204 and 169 and 192 and 177 and 171 and 174 and 189 and 179

CCc1ccc2[nH]c3nc(SCCNS(=O)(=O)c4ccc(NC(C)=O)cc4)nnc3c2c1 [KM822]
effect of mutation on potency of KM822 (hDAT W84C): increases the potency

[Zn+2] [Zn^2+]
T211H total (∆-hDAT T211H; Added Zn2+ 0.14 µM): 2307 and 2405 and 2334 and 1111 and 679 and 946 and 2428 and 2969 and 2868 | T211H total (∆-hDAT T211H; Added Zn2+ 0.41 µM): 1917 and 1650 and 1702 and 922 and 890 and 993 and 2213 and 1804 and 1794 | T211H total (∆-hDAT T211H; Added Zn2+ 1.23 µM): 1146 and 1389 and 1404 and 571 and 540 and 534 and 1806 and 1414 and 1274 | T211H total (∆-hDAT T211H; Added Zn2+ 3.70 µM): 951 and 892 and 809 and 316 and 317 and 411 and 837 and 824 and 1109 | T211H total (∆-hDAT T211H; Added Zn2+ 11.11 µM): 810 and 577 and 717 and 230 and 281 and 267 and 486 and 515 and 477 | T211H total (∆-hDAT T211H; Added Zn2+ 33.33 µM): 528 and 524 and 546 and 246 and 210 and 198 and 441 and 462 and 475 | T211H total (∆-hDAT T211H; Added Zn2+ 100.00 µM): 419 and 394 and 350 and 158 and 145 and 163 and 252 and 226 and 267 | IC50 of Zn2+ lower than that of ∆-hDAT (∆-hDAT T211H; T211H mutant, [3H]dopamine uptake, pH 8.5): ~20 fold | T211E total (∆-hDAT T211E; Added Zn2+ 0.0457 µM): 1043 and 1084 and 946 and 1214 and 1350 and 1252 and 1437 and 1516 and 1325 | T211E total (∆-hDAT T211E; Added Zn2+ 0.14 µM): 623 and 609 and 563 and 777 and 766 and 728 and 853 and 1009 and 867 | T211E total (∆-hDAT T211E; Added Zn2+ 0.41 µM): 635 and 450 and 501 and 372 (2×) and 389 and 527 and 516 and 677 | T211E total (∆-hDAT T211E; Added Zn2+ 1.23 µM): 459 and 447 and 440 and 286 and 276 and 244 and 481 and 403 (2×) | T211E total (∆-hDAT T211E; Added Zn2+ 3.70 µM): 335 and 268 and 302 and 159 and 217 and 381 and 284 and 246 and 231 | T211E total (∆-hDAT T211E; Added Zn2+ 11.11 µM): 323 and 314 and 345 and 238 and 249 and 229 and 277 and 278 | T211E total (∆-hDAT T211E; Added Zn2+ 33.33 µM): 416 and 290 and 362 and 261 and 242 and 215 and 342 and 313 and 301 | IC50 of Zn2+ lower than that of ∆-hDAT (∆-hDAT T211E; T211E mutant, [3H]dopamine uptake, pH 8.5): around 100 fold | decrease in apparent Zn2+ affinity (hDAT D191N): apparent threefold decrease | Δ-hDAT total counts (∆-hDAT [3]; Added Zn2+ 0.41 µM): 3458 counts and 3089 counts and 3357 counts and 3017 counts and 2960 counts and 2624 counts and 3155 counts and 3308 counts and 3482 counts | Δ-hDAT total counts (∆-hDAT [3]; Added Zn2+ 1.23 µM): 3105 counts and 3118 counts and 3175 counts and 2225 counts and 1943 counts and 2195 counts and 3616 counts and 3027 counts and 2892 counts | Δ-hDAT total counts (∆-hDAT [3]; Added Zn2+ 3.70 µM): 1979 counts and 2178 counts and 2228 counts and 2099 counts and 1947 counts and 1866 counts and 2321 counts and 2149 counts and 1943 counts | Δ-hDAT total counts (∆-hDAT [3]; Added Zn2+ 11.11 µM): 2029 counts and 1818 counts and 1787 counts and 1695 counts and 1560 counts and 1477 counts and 1550 counts and 1703 counts and 2026 counts | Δ-hDAT total counts (∆-hDAT [3]; Added Zn2+ 33.33 µM): 1238 counts and 1123 counts and 1240 counts and 1063 counts and 1147 counts and 906 counts and 1573 counts and 1503 counts and 1606 counts | Δ-hDAT total counts (∆-hDAT [3]; Added Zn2+ 100.00 µM): 771 counts and 681 counts and 793 counts and 660 counts and 598 counts and 682 counts and 1221 counts and 1015 counts and 885 counts | Δ-hDAT total counts (∆-hDAT [3]; Added Zn2+ 300.00 µM): 402 counts and 451 counts and 435 counts and 386 counts and 349 counts and 353 counts and 418 counts and 427 counts

B1: full-length hDAT (Homo sapiens) (protein)
chain: MSKSKCSVGLMSSVVAPAKEPNAVGPKEVELILVKEQNGVQLTSSTLTNPRQSPVEAQDRETWGKKIDFLLSVIGFAVDLANVWRFPYLCYKNGGGAFLVPYLLFMVIAGMPLFYMELALGQFNREGAAGVWKICPILKGVGFTVILISLYVGFFYNVIIAWALHYLFSSFTTELPWIHCNNSWNSPNCSDAHPGDSSGDSSGLNDTFGTTPAAEYFERGVLHLHQSHGIDDLGPPRWQLTACLVLVIVLLYFSLWKGVKTSGKVVWITATMPYVVLTALLLRGVTLPGAIDGIRAYLSVDFYRLCEASVWIDAATQVCFSLGVGFGVLIAFSSYNKFTNNCYRDAIVTTSINSLTSFSSGFVVFSFLGYMAQKHSVPIGDVAKDGPGLIFIIYPEAIATLPLSSAWAVVFFIMLLTLGIDSAMGGMESVITGLIDEFQLLHRHRELFTLFIVLATFLLSLFCVTNGGIYVFTLLDHFAAGTSILFGVLIEAIGVAWFYGVGQFSDDIQQMTGQRPSLYWRLCWKLVSPCFLLFVVVVSIVTFRPPHYGAYIFPDWANALGWVIATSSMAMVPIYAAYKFCSLPGSFREKLAYAIAPEKDRELVDRGEVRQFTLRHWLKV
Km ([4]; other: full-length hDAT): 0.56 ± 0.13 µM

B2: ∆-hDAT (Homo sapiens; I248Y) (protein)
chain: AQDRETWGKKIDFLLSVIGFAVDLANVWRFPYLCYKNGGGAFLVPYLLFMVIAGMPLFYMELALGQFNREGAAGVWKICPILKGVGFTVILISLYVGFFYNVIIAWALHYLFSSFTTELPWIHCNNSWNSPNCSDAHPGDSSGDSSGLNDTFGTTPAAEYFERGVLHLHQSHGIDDLGPPRWQLTACLVLVYVLLYFSLWKGVKTSGKVVWITATMPYVVLTALLLRGVTLPGAIDGIRAYLSVDFYRLCEASVWIDAATQVCFSLGVGFGVLIAFSSYNKFTNNCYRDAIVTTSINSLTSFSSGFVVFSFLGYMAQKHSVPIGDVAKDGPGLIFIIYPEAIATLPLSSAWAVVFFIMLLTLGIDSAMGGMESVITGLIDEFQLLHRHRELFTLFIVLATFLLSLFCVTNGGIYVFTLLDHFAAGTSILFGVLIEAIGVAWFYGVGQFSDDIQQMTGQRPSLYWRLCWKLVSPCFLLFVVVVSIVTFRPPHYGAYIFPDWANALGWVIATSSMAMVPIYAAYKFCSLPGSFREKLAYAIAPEKDRELVDRGEVRQFTLRHWLKV
Km ([4]; other: ∆-hDAT): 0.55 ± 0.07 µM

Source: paper PMC11324517 (Nature, 2024)
